In PubChem BioAssay (NCI):
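A five-concentration, 48-hour dose response in 96-well plates underlies each endpoint, interpolated linearly between surrounding concentrations. Definition used: TGI = concentration required for complete inhibition of growth.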

Key:
Assay in all cases: NCI tumour cell line growth inhibition, 48 h
[1] = system: SNB-19 CNS
[2] = system: COLO 205 colon
[3] = system: SK-MEL-2 melanoma
[4] = system: HCT-116 colon
[5] = system: NCI-H460 lung
[6] = system: RPMI-8226 leukemia
[7] = system: RXF-631 renal
[8] = system: KM12 colon
[9] = system: SF-539 CNS
[10] = system: M19-MEL melanoma
[11] = system: OVCAR-3 ovarian
[12] = system: HL-60(TB) leukemia
[13] = system: U251 CNS
[14] = system: UACC-62 melanoma
[15] = system: NCI-H522 lung
[16] = system: SR leukemia
[17] = system: M14 melanoma
[18] = system: SNB-75 CNS
[19] = system: KM20L2 colon
[20] = system: SW-620 colon
[21] = system: HOP-92 NSCLC
[22] = system: K-562 leukemia
[23] = system: SN12C renal
[24] = system: RXF 393 renal
[25] = system: MOLT-4 leukemia
[26] = system: SK-MEL-5 melanoma
[27] = system: SNB-78 CNS
[28] = system: UO-31 renal
[29] = system: HOP-18 NSCLC
[30] = system: SK-MEL-28 melanoma
[31] = system: UACC-257 melanoma
[32] = system: HT29 colon
[33] = system: SF-268 CNS
[34] = system: XF 498 CNS
[35] = system: OVCAR-5 ovarian
[36] = system: CAKI-1 renal
[37] = system: ACHN renal
[38] = system: OVCAR-8 ovarian
[39] = system: EKVX NSCLC
[40] = system: IGROV1 ovarian
[41] = system: A549 NSCLC
[42] = system: OVCAR-4 ovarian
[43] = system: NCI-H226 lung
[44] = system: NCI-H23 lung
[45] = system: TK-10 renal
[46] = system: A498 renal
[47] = system: HOP-62 NSCLC
[48] = system: MALME-3M melanoma
[49] = system: DMS 114 small cell lung
[50] = system: 786-0 renal
[51] = system: HCT-15 colon
[52] = system: SK-OV-3 ovarian
[53] = system: DLD-1 colon
[54] = system: SF-295 CNS
[55] = system: DMS 273 small cell lung
[56] = system: CCRF-CEM leukemia
[57] = system: LXFL 529 NSCLC
[58] = system: HCC-2998 colon
[59] = system: LOX IMVI melanoma
[60] = system: P388/ADR leukemia
[61] = system: MCF7 breast
[62] = system: SN12K1 renal
[63] = system: NCI/ADR-RES ovarian
[64] = system: P388 leukemia

Question: What does the source list for `COC(=O)Cc1nc2ccccc2o1`?
Answer: TGI [1]: > 100 µM; TGI [2]: > 100 µM; TGI [3]: > 100 µM; TGI [4]: > 100 µM; TGI [5]: > 100 µM; TGI [6]: > 100 µM; TGI [7]: > 100 µM; TGI [8]: > 100 µM; TGI [9]: > 100 µM; TGI [10]: > 100 µM; TGI [11]: > 100 µM; TGI [12]: 41.4 µM; TGI [13]: > 100 µM; TGI [14]: 49.3 µM; TGI [15]: > 100 µM; TGI [16]: > 100 µM; TGI [17]: > 100 µM; TGI [18]: > 100 µM; TGI [19]: 46.4 µM; TGI [20]: > 100 µM; TGI [21]: > 100 µM; TGI [22]: > 100 µM; TGI [23]: > 100 µM; TGI [24]: > 100 µM; TGI [25]: > 100 µM; TGI [26]: > 100 µM; TGI [27]: > 100 µM; TGI [28]: > 100 µM; TGI [29]: > 100 µM; TGI [30]: > 100 µM; TGI [31]: > 100 µM; TGI [32]: > 100 µM; TGI [33]: > 100 µM; TGI [34]: > 100 µM; TGI [35]: > 100 µM; TGI [36]: > 100 µM; TGI [37]: > 100 µM; TGI [38]: > 100 µM; TGI [39]: > 100 µM; TGI [40]: > 100 µM; TGI [41]: > 100 µM; TGI [42]: > 100 µM; TGI [43]: > 100 µM; TGI [44]: > 100 µM; TGI [45]: > 100 µM; TGI [46]: > 100 µM; TGI [47]: > 100 µM; TGI [48]: > 100 µM; TGI [49]: > 100 µM; TGI [50]: > 100 µM; TGI [51]: > 100 µM; TGI [52]: > 100 µM; TGI [53]: > 100 µM; TGI [54]: > 100 µM; TGI [55]: > 100 µM; TGI [56]: > 100 µM; TGI [57]: > 100 µM; TGI [58]: > 100 µM

Question: What does the source list for `CN(CCO)/N=N/c1[nH]ncc1C(N)=O`?
Answer: TGI [1]: > 100 µM; TGI [2]: > 100 µM; TGI [3]: > 100 µM; TGI [4]: > 100 µM; TGI [5]: > 100 µM; TGI [6]: > 100 µM; TGI [8]: > 100 µM; TGI [9]: > 100 µM; TGI [10]: > 100 µM; TGI [11]: > 100 µM; TGI [12]: > 100 µM; TGI [13]: > 100 µM; TGI [14]: > 100 µM; TGI [15]: > 100 µM; TGI [18]: > 100 µM; TGI [19]: > 100 µM; TGI [20]: > 100 µM; TGI [21]: > 100 µM; TGI [59]: > 100 µM; TGI [22]: > 100 µM; TGI [23]: > 100 µM; TGI [24]: > 100 µM; TGI [25]: > 100 µM; TGI [26]: > 100 µM; TGI [27]: > 100 µM; TGI [28]: > 100 µM; TGI [29]: > 100 µM; TGI [30]: > 100 µM; TGI [31]: > 100 µM; TGI [60]: > 100 µM; TGI [32]: > 100 µM; TGI [61]: > 100 µM; TGI [33]: > 100 µM; TGI [34]: > 100 µM; TGI [62]: > 100 µM; TGI [35]: > 100 µM; TGI [36]: > 100 µM; TGI [38]: > 100 µM; TGI [39]: > 100 µM; TGI [40]: > 100 µM; TGI [41]: > 100 µM; TGI [42]: > 100 µM; TGI [43]: > 100 µM; TGI [44]: > 100 µM; TGI [63]: > 100 µM; TGI [46]: > 100 µM; TGI [48]: > 100 µM; TGI [49]: > 100 µM; TGI [64]: > 100 µM; TGI [51]: > 100 µM; TGI [52]: > 100 µM; TGI [53]: > 100 µM; TGI [54]: > 100 µM; TGI [55]: > 100 µM; TGI [56]: > 100 µM; TGI [58]: > 100 µM
